Results on one compound are retold here after patent US7449495B2, “Retinoid derivatives with antiangiogenic, antitumoral and proapoptotic activities” (Sigma-Tau Industrie Farmaceutiche Riunite S.p.A., priority 2001, dated 2008).

Assay [1] concerns Human ovarian carcinoma IGROV-1/Pt (platinum resistant). In words: Cytotoxicity test (sulphorodamine B), IGROV-1/Pt. The note with it: 24 h incubation, survival 48 h after removal. It is filed as cell-based. The source says: Different cell lines deriving from solid tumors were also used. • 1. Human prostate carcinoma PC3 and DU145. These cell lines were maintained in RPMI 1640 medium containing 10% FCS, 1% sodium pyruvate and 1% glutamine; • 2. Human colon adenocarcinoma LoVo. This cell line was maintained in HAM's F-12 medium, containing 10% FCS and 1% glutamine. • 3. Human ovarian carcinoma such as A2780 and A2780/Dx, sensitive and resistant to drugs, respectively (doxorubicin, taxol, etoposide, vincristine); IGROV-1 and IGROV-1/Pt, sensitive and resistant to platinum-based chemotherapy, respectively, were maintained in RPMI 1640 medium containing 10% FCS, 1% sodium pyruvate and 1% glutamine; • 4. Human melanoma MeWo and MeS 2.21, glioblastoma GBM, no small cell lung carcinomas A431, NCI—H460, osteosarcomas SAOS and U2OS were maintained in RPMI 1640 medium containing 10% FCS, 1% sodium pyruvate and 1% glutamine.
The cytotoxicity tests were carried out using NB4 or HL-60 cells in suspension (10000/well). The cells were seeded in a volume of 250 μl in 96 well plates and incubated for 24 hours at 37° C. […] The optical density was measured using a Multiskan spectrophotometer at 540 nm. […]
Cell survival was determined by incubation with ST1926 for 24 hours, 48 hours after the removal of the compound. […]

For assay [2], the system named is A2780/Dx multidrug-resistant human ovarian carcinoma cells. Briefly: Cytotoxicity in combination with TRAIL, A2780/Dx. It is filed as cell-based. The note with it: 72 hours, value >1 synergism (FIG. 1). On the procedure: FIG. 1 is a graph showing the interaction between ST1926 and TRAIL in A2780/Dx multidrug-resistant human ovarian carcinoma cells at different concentrations of TRAIL.
A study of cytotoxicity of ST1926 in combination with TRAIL was performed in two different tumor cell lines such as M109 murine lung carcinoma and A2780/Dx multidrug-resistant human ovarian carcinoma. Cells were maintained in RPMI 1640 medium containing 10% FCS, 1% sodium pyruvate and 1% glutamine.
The cells were seeded in a volume of 250 μl in 96 well plates and incubated for 24 hours at 37° C. The following day, test compound ST 1926 [(2E)-3-[3′-(1-Adamantyl)-4′-hydroxy[1,1′-biphenyl]-4-yl]-2-propenoate/ic acid] or TRAIL were added at increasing concentrations, and the cells were incubated for a further 72 hours at 37° C. in a humidified atmosphere containing 5% CO2. On the 5th day, the supernatant was removed by upturning the plates. 200 μl of PBS and 50 μl of cold, 80% TCA were added. The plates were then left to incubate on ice for at least 1 hour. The TCA was removed by upturning; the plates were washed three times by immersion in distilled water and dried first on paper, then with a jet of hot air. […] The optical density was measured using a Multiskan spectrophotometer at 540 nm.
The interaction between ST1926 and TRAIL was determined by using the analysis of Drewinko et al. (Cancer Biochem. Biophys. 1: 187-195, 1976). […]

The test system of assay [3] is chicken chorioallantoic membrane vessels, bFGF induced. Briefly: Angiostatic activity in chicken chorioallantoic membrane (CAM) model. The note with it: bFGF 0.05 + compound 0.25 μg/embryo. It is filed as in vivo. From the text: The chicken chorioallantoic membrane is a very vascularised membrane in which the vessels make their appearance at the 4th day of development, develop an arteriovenal system by the 8th day of development, and actively proliferate until the 11th day.
The aim of the study was to follow vasal development in the CAM under basal conditions and in the presence of an inducer bFGF (basic Fibroblast Growth Factor) of vasoproliferation. This study used chicken embryonal eggs at the initial stage of their development. On the 3rd day of development an operation to open the shells was performed to make the vessels of the CAM visible. The treatment was administered on the 9th day of development by applying a fragment of sterile gelatine (GELFOAM Pharmacia-Upjohn) about 1 mm^3, to the CAM surface, onto which was administered the bFGF (50 ng/embryo) or the products in question, for 3 consecutive days.
The evaluation of the effect of the molecule on vasoproliferation was obtained by a comparison of the vessels at the time of zero treatment with these of later times (12th day).

The structures appear in SMILES notation.

A word on the IC50: it is the midpoint of a concentration-inhibition curve. The low end stands for greater potency in that assay, the high end for weaker potency in that assay. In assay [1], `O=C(O)/C=C/c1ccc(-c2ccc(O)c(C34CC5CC(CC(C5)C3)C4)c2)cc1` [ST1926, E-4-(3-(1-adamantyl)-4-hydroxyphenyl)cinnamic acid] gave an IC50 of 330 nM. Moreover, the “interaction between ST1926 and TRAIL (analysis of Drewinko et al.)” value in assay [2] is given as “synergic activity”. Besides, in assay [3], the “Δvessels, change vs bFGF alone” value is recorded as “(−53%)”. Further, in assay [3] (mean ± SE), the “12th day (72 hours), number of vessels per sponge” value is recorded as 12 ± 2 vessels per sponge and the Δvessels stood at 9 ± 2 vessels per sponge.
